Results as given in ChEMBL document CHEMBL2074399, “Effects of steroids and verapamil on P-glycoprotein ATPase activity: progesterone, desoxycorticosterone, corticosterone and verapamil are mutually non-exclusive modulators” (Biochem J, 1996).

Molecular target: ATP-dependent translocase ABCB1 (Homo sapiens, UniProt P08183)
Test: TP_TRANSPORTER: inhibition of Verapamil stimulated ATP hydrolysis (Verapamil: 2 uM, Corticosterone: 800 uM) in membrane vesicles from DC-3F/ADX cells
Format: functional, cell membranes, Membrane vesicle
Settings: hamster

ATP-dependent translocase ABCB1, sequence (P08183 whole entry): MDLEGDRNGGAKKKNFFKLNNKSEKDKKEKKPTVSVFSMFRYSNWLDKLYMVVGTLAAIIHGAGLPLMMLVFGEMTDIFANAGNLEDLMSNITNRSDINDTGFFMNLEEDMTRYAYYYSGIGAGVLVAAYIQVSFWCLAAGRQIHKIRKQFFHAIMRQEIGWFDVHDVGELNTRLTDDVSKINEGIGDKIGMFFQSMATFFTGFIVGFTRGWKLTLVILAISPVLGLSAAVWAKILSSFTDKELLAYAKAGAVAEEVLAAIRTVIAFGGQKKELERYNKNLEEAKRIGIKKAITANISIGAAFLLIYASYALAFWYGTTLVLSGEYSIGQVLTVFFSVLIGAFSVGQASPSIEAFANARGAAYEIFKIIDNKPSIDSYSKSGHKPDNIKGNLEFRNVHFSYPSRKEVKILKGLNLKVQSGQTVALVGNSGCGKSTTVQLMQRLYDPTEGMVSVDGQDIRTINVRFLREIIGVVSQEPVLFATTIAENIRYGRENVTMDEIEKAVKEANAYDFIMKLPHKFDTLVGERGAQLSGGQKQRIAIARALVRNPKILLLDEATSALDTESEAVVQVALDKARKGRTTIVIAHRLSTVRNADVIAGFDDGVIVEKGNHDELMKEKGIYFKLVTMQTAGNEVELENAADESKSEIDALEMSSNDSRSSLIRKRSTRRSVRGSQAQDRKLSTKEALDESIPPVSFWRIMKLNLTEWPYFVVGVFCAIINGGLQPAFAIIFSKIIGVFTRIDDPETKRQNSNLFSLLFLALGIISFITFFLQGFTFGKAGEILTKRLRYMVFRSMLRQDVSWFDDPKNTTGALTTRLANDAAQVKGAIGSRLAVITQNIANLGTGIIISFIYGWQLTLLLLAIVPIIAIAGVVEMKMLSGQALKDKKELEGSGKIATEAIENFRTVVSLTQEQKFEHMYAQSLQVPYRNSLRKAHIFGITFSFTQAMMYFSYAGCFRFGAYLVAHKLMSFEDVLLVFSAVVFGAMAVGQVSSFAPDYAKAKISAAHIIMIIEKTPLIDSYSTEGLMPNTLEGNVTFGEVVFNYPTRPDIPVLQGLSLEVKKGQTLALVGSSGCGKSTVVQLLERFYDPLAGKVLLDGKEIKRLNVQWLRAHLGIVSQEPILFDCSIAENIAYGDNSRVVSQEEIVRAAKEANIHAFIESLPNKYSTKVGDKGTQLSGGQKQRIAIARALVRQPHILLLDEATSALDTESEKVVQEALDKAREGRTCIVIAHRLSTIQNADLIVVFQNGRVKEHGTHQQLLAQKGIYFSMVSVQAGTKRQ

C[C@]12C[C@H](O)[C@H]3[C@@H](CCC4=CC(=O)CC[C@@]43C)[C@@H]1CC[C@@H]2C(=O)CO [CORTICOSTERONE]
Activity: inhibitor [+]
